Assay results from patent US8119636B2, “Pyrrolopyrazine kinase inhibitors” (Roche Palo Alto LLC, priority 2008, dated 2012).

SMILES | melting point [°C]
CC(C)CC(=O)c1c[nH]c2ncc(Br)nc12 [Compound I-1, 1-(2-Bromo-5H-pyrrolo[2,3-b]pyrazin-7-yl)-3-methyl-butan-1-one] | 183 to 187.5
CC(C)NC(=O)c1c[nH]c2ncc(Cl)nc12 [Compound I-3, 2-Chloro-5H-pyrrolo[2,3-b]pyrazine-7-carboxylic acid isopropylamide] | 278 to 279
CC(C)(C)C(=O)c1c[nH]c2ncc(Cl)nc12 [Compound I-6, 1-(2-Chloro-5H-pyrrolo[2,3-b]pyrazin-7-yl)-2,2-dimethyl-propan-1-one] | 209 to 210
CC1(C(=O)c2c[nH]c3ncc(Br)nc23)CCCCC1 [Compound I-7, (2-Bromo-5H-pyrrolo[2,3-b]pyrazin-7-yl)-(1-methyl-cyclohexyl)-methanone] | 198 to 199
CC(C)(C)C(=O)c1c[nH]c2ncc(Br)nc12 [Compound I-8, 1-(2-Bromo-5H-pyrrolo[2,3-b]pyrazin-7-yl)-2,2-dimethyl-propan-1-one] | 213 to 214
C#Cc1cnc2[nH]cc(C(=O)C(C)(C)C)c2n1 [Compound I-11, 1-(2-Ethynyl-5H-pyrrolo[2,3-b]pyrazin-7-yl)-2,2-dimethyl-propan-1-one] | 229 to 231
CCc1cnc2[nH]cc(C(=O)C(C)(C)C)c2n1 [Compound I-12, 1-(2-Ethyl-5H-pyrrolo[2,3-b]pyrazin-7-yl)-2,2-dimethyl-propan-1-one] | 215 to 216

The next lines start with the values.

melting point [°C] | SMILES
148 to 150 | CC(C)C(O)c1cnc2[nH]cc(C(=O)C(C)(C)C)c2n1 (stereo not shown) [Compound I-15, 1-[2-(1-Hydroxy-2-methyl-propyl)-5H-pyrrolo[2,3-b]pyrazin-7-yl]-2,2-dimethyl-propan-1-one]
181 to 183 | Cc1ccccc1C(O)c1cnc2[nH]cc(C(=O)C(C)(C)C)c2n1 (stereo not shown) [Compound I-16, 1-[2-(Hydroxy-o-tolyl-methyl)-5H-pyrrolo[2,3-b]pyrazin-7-yl]-2,2-dimethyl-propan-1-one]
168 to 170 | CC(C)(C)C(=O)c1c[nH]c2ncc(C(O)c3ccccc3)nc12 (stereo not shown) [Compound I-17, 1-[2-(Hydroxy-phenyl-methyl)-5H-pyrrolo[2,3-b]pyrazin-7-yl]-2,2-dimethyl-propan-1-one]
189.1 to 194.9 | CC(C)(C)C(=O)c1c[nH]c2ncc(C(O)c3ccncc3)nc12 (stereo not shown) [Compound I-18, 1-[2-(Hydroxy-pyridin-4-yl-methyl)-5H-pyrrolo[2,3-b]pyrazin-7-yl]-2,2-dimethyl-propan-1-one]
192 to 194 | CC(C)(C)C(=O)c1c[nH]c2ncc(C(O)c3cccnc3)nc12 (stereo not shown) [Compound I-19, 1-[2-(Hydroxy-pyridin-3-yl-methyl)-5H-pyrrolo[2,3-b]pyrazin-7-yl]-2,2-dimethyl-propan-1-one]
197.7 to 198.2 | CC1(C(=O)c2c[nH]c3ncc(Br)nc23)CCCCCC1 [Compound I-24, (2-Bromo-5H-pyrrolo[2,3-b]pyrazin-7-yl)-(1-methyl-cycloheptyl)-methanone]
